PubChem BioAssay (NCI)
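Values below derive from 48-hour exposures of cells grown in 96-well plates, with endpoints linearly interpolated between the two concentrations bracketing the appropriate inhibition level. GI50 is the concentration that inhibits growth by half. Definition used: TGI = concentration required for complete inhibition of growth.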

Legend:
Experiment in all cases: DTP human tumour cell line panel, 48 h
[1] = system: NCI-H522 lung
[2] = system: MOLT-4 leukemia
[3] = system: ACHN renal
[4] = system: NCI-H460 lung
[5] = system: SF-295 CNS
[6] = system: SR leukemia
[7] = system: HCT-116 colon
[8] = system: SF-268 CNS
[9] = system: OVCAR-8 ovarian
[10] = system: MCF7 breast

SMILES	TGI [1] [µM]	TGI [2] [µM]	TGI [3] [µM]	TGI [4] [µM]	TGI [5] [µM]	TGI [6] [µM]	TGI [7] [µM]	TGI [8] [µM]	TGI [9] [µM]	TGI [10] [µM]	GI50 [1] [µM]	GI50 [2] [µM]	GI50 [3] [µM]	GI50 [4] [µM]	GI50 [5] [µM]	GI50 [7] [µM]	GI50 [8] [µM]	GI50 [9] [µM]	GI50 [10] [µM]	GI50 [6] [µM]
CN(C)CC/C(=N\Nc1ccc(Cl)c(Cl)c1)c1ccccc1	4.28	5.9	3.05	3.65	3.99	5.58	3.19	3.48	3.96											
NC(CSc1nc2ccccn2c1[N+](=O)[O-])C(=O)O (stereo not drawn)	> 100		> 100	> 100	> 100	> 100	> 100	> 100	> 100	> 100										
O=C(Nc1ccccc1)NS(=O)(=O)c1ccc(N2N=C3c4ccccc4CC3C2c2ccccn2)cc1 (stereo not drawn)	58.3	> 100	68.8	> 100	50		29.1	> 100	92.3	> 100	17.7	11.6	23.6	38.5	20.6	15.3	62.1	27	27	
OCCNc1ncnc2c1ncn2C1OC(CO)C(O)C1O (stereo not drawn)	> 100		> 100	> 100	> 100		> 100	> 100	> 100	> 100										
COc1cc(/C=C/c2ccc(OC(C)=O)cc2)cc(OC)c1OC	81.9	75.7	78.6	91.6	66.3		> 100	> 100	> 100											
COc1ccc2nc(NC(=O)C(=O)C(C(=O)c3ccccc3-c3ccccc3)C3OC(=O)c4ccccc43)sc2c1 (stereo not drawn)	23.8	89.5	73.9	50.2	> 100		27.6	63.2	59.3											
COc1ccc(-c2cc(-c3cn[nH]c3-c3ccccn3)ccn2)cc1	> 25	> 25	> 25	> 25	> 25		> 25	> 25	> 25	> 25	> 25	> 25	> 25	> 25	> 25	> 25	> 25	> 25	> 25	
NC(=S)NNC(=O)CCC(=O)Nc1ccc(Cl)cc1Cl	> 100	> 100	> 100	> 100	> 100		> 100	> 100	> 100											
Cc1ccccc1-c1c(N)nc(N)nc1C(=O)Nc1nccs1	> 100	> 100	> 100	> 100	> 100	> 100	> 100	> 100	> 100											
CCC[CH2][Ge]([CH2]CCC)([CH2]CCC)[O]C(=O)C(O)c1ccccc1 (stereo not drawn)	5.65	> 39.4	19.8	34.9	17.6		13.8	> 65.1	22.4		0.411	0.602	4.23	3.03	1.01	0.571	6.74	10.6		
CCc1ccc(Nc2cc(=O)[nH]c(=S)n2C)cc1	> 100	> 100		> 100	> 100	> 100	> 100	> 100	> 100											
ClC1=NC(Cl)C(Cl)=N/C1=N\c1ncn[nH]1 (stereo not drawn)	3.55		3.48	14.9	28.5	3.63	3.48	5.22	6.05	4.15	1.68		1.88	3.65	13.4	1.76	2.24	2.27	1.78	1.3
CO/N=C(/COc1c(-c2ccccc2)oc2ccccc2c1=O)c1ccc(OC)cc1	> 100		> 100		> 100	53.4	> 100		> 100		53.3		> 100		> 100	> 100		> 100		9.1
CO[C@H]1C[C@@H]2CC[C@@H](C)[C@@](O)(O2)C(=O)C(=O)N2CCCC[C@H]2C(=O)O[C@H]([C@H](C)C[C@@H]2CC[C@@H](OP(C)(C)=O)[C@H](OC)C2)CC(=O)[C@H](C)/C=C(\C)[C@@H](O)[C@@H](OC)C(=O)[C@H](C)C[C@H](C)/C=C/C=C/C=C/1C	19.9	37.1	21.5	21.8	15.5		24.8	23.6	28.8	21		2.96	0.411		< 0.01	11.8	10.9	< 0.01	0.402	
CCOC(=O)N1N=NC2C3OC(C[C@@]3(C#N)OC(C)=O)[C@H]21 (stereo partly drawn)	> 100	> 100	> 100	> 100	> 100	> 100	> 100	> 100	> 100											
CCCCCCCCCC1C(C)c2c([nH]c3ccccc23)C2C(=O)N(c3ccccc3)C(=O)C21 (stereo not drawn)		9.44	22.8	13.7	28.9		10.2		> 100											
CCC[CH2][Sn]([CH2]CCC)([O]C(=O)c1cc(OC)c(OC)cc1OC)[O]C(=O)c1cc(OC)c(OC)cc1OC	1.14	6.43	3	12.1	5.88		2.85	2.54	3.03		0.373	0.747	1.62	3.08	2.28	1.51	1.23	1.48		
Cc1ccc(NC(=O)CC/C(CC(=O)c2ccc(F)cc2)=N\NC(=O)C(=O)NN)cc1C	> 100		> 100	> 100	> 100		> 100	> 100	> 100											
